Test results reported in article PMC3914206.

Legend:
Format in all cases: binding
[1] = target: T1, panel of 442 kinases (Homo sapiens, UniProt P15056, V600E); conditions: Compound Concentration 10 µM
T1 construct: purchased KINOMEscan
From the text: (§1) We assessed the selectivity of members of this scaffold using the KINOMEscan methodology across a near comprehensive panel of 442 kinases [[18,27]].

[2] = target: T2, panel of 442 kinases (Homo sapiens, UniProt P23458); conditions: Compound Concentration 10 µM
T2 construct: purchased KINOMEscan
From the text: as §1

[3] = target: T3, panel of 442 kinases (Homo sapiens, UniProt Q9H2G2); conditions: kinase SLK; compound concentration 10 µM
T3 construct: purchased KINOMEscan
From the text: as §1

[4] = target: T4, panel of 442 kinases (Homo sapiens, UniProt Q9H422); conditions: Compound Concentration 10 µM
T4 construct: purchased KINOMEscan
From the text: as §1

T2 sequence (P23458 whole entry): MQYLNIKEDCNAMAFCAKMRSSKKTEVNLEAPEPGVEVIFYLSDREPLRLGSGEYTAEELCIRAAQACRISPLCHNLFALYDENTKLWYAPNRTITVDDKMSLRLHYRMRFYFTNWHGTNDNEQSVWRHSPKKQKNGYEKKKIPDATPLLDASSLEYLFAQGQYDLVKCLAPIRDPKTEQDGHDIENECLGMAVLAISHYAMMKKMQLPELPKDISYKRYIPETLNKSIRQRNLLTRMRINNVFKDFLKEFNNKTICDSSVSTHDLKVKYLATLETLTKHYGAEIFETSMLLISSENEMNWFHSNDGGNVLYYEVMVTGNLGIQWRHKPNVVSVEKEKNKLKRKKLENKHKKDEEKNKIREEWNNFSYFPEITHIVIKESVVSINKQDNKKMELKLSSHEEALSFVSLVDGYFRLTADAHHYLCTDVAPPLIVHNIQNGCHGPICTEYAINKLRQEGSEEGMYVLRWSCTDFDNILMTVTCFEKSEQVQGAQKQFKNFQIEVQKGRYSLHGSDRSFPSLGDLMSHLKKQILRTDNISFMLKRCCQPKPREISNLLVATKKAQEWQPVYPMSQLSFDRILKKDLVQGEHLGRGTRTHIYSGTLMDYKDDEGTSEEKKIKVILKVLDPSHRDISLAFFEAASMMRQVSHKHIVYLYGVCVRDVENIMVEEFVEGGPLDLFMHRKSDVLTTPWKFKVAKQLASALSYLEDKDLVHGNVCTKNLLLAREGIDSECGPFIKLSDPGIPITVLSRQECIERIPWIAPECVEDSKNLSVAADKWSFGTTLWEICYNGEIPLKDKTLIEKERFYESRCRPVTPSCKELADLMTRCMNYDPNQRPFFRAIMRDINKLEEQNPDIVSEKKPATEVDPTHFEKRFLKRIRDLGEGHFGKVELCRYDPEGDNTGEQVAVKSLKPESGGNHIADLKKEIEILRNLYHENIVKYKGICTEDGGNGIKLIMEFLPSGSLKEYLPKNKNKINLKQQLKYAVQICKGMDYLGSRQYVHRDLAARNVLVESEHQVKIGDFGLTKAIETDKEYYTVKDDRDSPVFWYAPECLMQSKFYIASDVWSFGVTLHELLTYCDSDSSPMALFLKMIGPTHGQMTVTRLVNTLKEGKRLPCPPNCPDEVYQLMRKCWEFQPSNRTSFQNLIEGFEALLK
T3 sequence (Q9H2G2 whole entry): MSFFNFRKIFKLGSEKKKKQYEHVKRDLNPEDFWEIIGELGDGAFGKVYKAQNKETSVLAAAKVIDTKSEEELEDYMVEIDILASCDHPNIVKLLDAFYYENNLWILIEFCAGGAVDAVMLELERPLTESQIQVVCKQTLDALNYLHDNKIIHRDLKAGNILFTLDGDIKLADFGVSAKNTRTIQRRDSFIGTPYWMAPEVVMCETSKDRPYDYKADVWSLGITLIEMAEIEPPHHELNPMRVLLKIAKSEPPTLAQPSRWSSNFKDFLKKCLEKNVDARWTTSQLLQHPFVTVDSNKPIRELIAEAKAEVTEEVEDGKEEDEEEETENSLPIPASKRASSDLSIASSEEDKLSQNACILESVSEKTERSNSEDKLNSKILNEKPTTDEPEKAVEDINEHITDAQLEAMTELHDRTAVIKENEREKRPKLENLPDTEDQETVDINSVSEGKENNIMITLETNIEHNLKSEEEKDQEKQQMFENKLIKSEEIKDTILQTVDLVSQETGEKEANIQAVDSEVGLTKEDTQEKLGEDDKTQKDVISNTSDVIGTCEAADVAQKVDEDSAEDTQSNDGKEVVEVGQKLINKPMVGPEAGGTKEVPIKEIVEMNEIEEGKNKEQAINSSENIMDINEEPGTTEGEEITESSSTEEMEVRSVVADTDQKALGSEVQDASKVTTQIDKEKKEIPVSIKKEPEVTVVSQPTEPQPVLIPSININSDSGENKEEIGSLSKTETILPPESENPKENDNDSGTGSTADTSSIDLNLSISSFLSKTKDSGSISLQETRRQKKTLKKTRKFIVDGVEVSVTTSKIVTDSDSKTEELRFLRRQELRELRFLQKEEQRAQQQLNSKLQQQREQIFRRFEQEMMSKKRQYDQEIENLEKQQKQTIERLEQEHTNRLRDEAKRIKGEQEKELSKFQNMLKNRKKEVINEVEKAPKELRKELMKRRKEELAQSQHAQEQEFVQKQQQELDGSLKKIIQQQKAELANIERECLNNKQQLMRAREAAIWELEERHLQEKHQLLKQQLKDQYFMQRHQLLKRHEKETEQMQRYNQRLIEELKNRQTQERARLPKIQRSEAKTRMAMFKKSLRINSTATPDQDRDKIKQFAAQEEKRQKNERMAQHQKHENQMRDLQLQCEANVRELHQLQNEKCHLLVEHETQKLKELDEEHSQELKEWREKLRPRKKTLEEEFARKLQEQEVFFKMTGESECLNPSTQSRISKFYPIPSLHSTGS
T4 sequence (Q9H422 whole entry): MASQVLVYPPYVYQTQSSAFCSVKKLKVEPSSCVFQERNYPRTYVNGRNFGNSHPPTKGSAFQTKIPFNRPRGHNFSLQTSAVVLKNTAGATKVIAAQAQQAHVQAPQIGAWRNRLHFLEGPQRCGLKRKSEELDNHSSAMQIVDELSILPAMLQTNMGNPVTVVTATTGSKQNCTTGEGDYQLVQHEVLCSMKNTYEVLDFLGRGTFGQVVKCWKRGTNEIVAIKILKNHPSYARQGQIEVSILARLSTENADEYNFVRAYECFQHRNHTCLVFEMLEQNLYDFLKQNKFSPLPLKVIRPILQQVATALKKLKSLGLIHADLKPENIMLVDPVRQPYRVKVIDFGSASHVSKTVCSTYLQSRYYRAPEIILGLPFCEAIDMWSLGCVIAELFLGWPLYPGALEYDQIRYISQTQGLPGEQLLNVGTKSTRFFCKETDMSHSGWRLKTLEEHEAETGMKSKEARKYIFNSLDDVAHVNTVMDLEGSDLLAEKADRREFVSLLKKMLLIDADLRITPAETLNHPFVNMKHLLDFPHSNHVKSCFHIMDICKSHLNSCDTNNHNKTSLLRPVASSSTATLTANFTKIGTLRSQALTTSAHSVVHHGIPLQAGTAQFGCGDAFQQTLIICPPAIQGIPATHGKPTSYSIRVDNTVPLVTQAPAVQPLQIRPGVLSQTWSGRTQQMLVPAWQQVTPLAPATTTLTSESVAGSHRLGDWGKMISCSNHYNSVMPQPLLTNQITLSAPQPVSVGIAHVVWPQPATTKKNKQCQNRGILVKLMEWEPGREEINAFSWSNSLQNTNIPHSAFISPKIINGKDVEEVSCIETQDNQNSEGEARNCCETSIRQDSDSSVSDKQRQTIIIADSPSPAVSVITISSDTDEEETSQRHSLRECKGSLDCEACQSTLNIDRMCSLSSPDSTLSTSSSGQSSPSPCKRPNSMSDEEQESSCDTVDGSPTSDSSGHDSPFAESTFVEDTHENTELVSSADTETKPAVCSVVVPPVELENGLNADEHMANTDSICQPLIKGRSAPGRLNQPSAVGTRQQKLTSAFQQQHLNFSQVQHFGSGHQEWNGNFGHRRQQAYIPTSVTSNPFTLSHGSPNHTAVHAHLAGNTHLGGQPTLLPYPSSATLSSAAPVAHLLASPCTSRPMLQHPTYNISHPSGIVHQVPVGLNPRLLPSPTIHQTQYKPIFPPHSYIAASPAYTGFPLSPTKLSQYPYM
T1 sequence (P15056 whole entry V600E): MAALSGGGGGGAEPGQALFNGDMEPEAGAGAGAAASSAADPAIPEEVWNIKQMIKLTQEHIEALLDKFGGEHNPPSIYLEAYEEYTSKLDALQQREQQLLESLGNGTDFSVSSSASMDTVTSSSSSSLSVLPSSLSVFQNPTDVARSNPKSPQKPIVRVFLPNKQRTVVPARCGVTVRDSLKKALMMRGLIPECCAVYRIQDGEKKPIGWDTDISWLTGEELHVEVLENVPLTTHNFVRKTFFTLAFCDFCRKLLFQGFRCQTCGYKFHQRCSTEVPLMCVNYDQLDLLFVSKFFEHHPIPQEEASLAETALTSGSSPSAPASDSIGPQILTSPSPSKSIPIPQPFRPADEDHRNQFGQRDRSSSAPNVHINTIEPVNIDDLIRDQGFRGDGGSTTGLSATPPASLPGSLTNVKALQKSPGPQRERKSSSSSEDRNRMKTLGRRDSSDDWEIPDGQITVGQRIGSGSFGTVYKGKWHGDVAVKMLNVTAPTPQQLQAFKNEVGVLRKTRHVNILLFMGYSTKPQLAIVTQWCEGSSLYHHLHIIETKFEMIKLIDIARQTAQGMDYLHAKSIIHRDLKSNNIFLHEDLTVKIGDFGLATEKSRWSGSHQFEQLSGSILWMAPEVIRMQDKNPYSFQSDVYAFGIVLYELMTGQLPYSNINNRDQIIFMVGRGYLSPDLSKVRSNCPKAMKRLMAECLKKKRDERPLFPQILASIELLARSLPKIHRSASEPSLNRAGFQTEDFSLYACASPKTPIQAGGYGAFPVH

Row | Structure (SMILES) | KINOMEscan: BRAF(V600E) [1] | KINOMEscan: JAK1(JH1domain-catalytic) [2] | KINOMEscan: JAK1(JH2domain-pseudokinase) [2] | % Ctrl, SLK [3] | KINOMEscan: HIPK3 [4]
1 | COc1cc(C(=O)N2CCC(N3CCN(C)CC3)CC2)ccc1Nc1ncc2c(n1)N(C1CCCC1)c1ccccc1C(=O)N2C [Compound 25, 11-cyclopentyl-2-((2-methoxy-4-(4-(4-methylpiperazin-1-yl)piperidine-1-carbonyl)phenyl)amino)-5-methyl-5H-benzo[e]pyrimido[5,4-b][1,4]diazepin-6(11H)-one] | 100 | 100 | 100 | 100 % Ctrl | 100
2 | CCOc1cc(C(=O)N2CCC(N3CCN(C)CC3)CC2)ccc1Nc1ncc2c(n1)N(C1CCCC1)c1ccccc1C(=O)N2C [Compound 26] | 100 | 100 | 98 | 100 % Ctrl | 92
3 | COc1cc(C(=O)N2CCC(N3CCN(C)CC3)CC2)ccc1Nc1ncc2c(n1)N1CCc3cccc(c31)C(=O)N2C [Compound 24] | – | – | 62 | 49 % Ctrl | 48
4 | COc1cc(C(=O)N2CCC(N3CCN(C)CC3)CC2)ccc1Nc1ncc2c(n1)N(C)c1ccccc1C(=O)N2C [15 (LRRK2-IN-1)] | 100 | 100 | 92 | 100 % Ctrl | 89
